According to patent US20230111310A1, “CARBOXYLIC ACID DERIVATIVE-SUBSTITUTED IMINO ARYL COMPOUND, PREPARATION METHOD THEREFOR, HERBICIDAL COMPOSITION AND USE THEREOF” (Qingdao Kingagroot Chemical Compound Co., Ltd., priority 2020, published 2023):
Where two headings read alike, the source gives them in different places.

Assays:
Type in all cases: in vivo
Eclipta prostrate = experiment: Composition activity test, post-emergence foliage spray; conditions: for pest or weed control at 150 g/ha: B 150 g a.i./ha; for pest or weed control at 225 g/ha: B 225 g a.i./ha
Experimental: (§1) are as follows, and the others were purchased from reagent companies. The technical materials were all dissolved in acetone and diluted with an aqueous solution containing 0.1% emulsifier Tween-80. The dilution is performed as required.
(§2) Weeds were cultivated by a pot culture method. […] Full and uniform weed seeds were selected, soaked in warm water at 25° C. for 6 hours, and germinated in a 28° C. biochemical incubator (darkness). The weed seeds that had just germinated were evenly placed on the surface of the soil and then covered with 0.5-1 cm soil according to the sizes of seeds.
(§3) The culture was carried out in a controllable sunlight greenhouse at 20 to 30° C., in natural light, and relative humidity of 57% to 72%.
(§4) 3 pots with 20 weed seeds per pot were treated in one treatment with 4 replications per treatment.
(§5) The agents were used for only once in the experiment. In the stage of weeds with 1.5-2 leaves, the weeds were thinned out to maintain 10 weeds per pot and 30 weeds for each treatment, then continued to be cultured to Conyza Canadensis 10 cm in height, other weeds 3-4 leaves stage and treated.
(§6) The well-cultured weeds were evenly placed on a platform with an area of 0.5 m^2, and a solution of agents was sprayed on the stems and leaves thereof by the 3WP-2000-type walking spray tower at a dosage of 450 kg/ha and at a spray pressure of 0.3 MPa. After all the solution was sprayed, the valve was closed. After 30 seconds, the door of the spray tower was opened, and the nutritional bowl was taken out. Then the valve was opened, and the spray tube was cleaned by spraying 50 ml of water. After the treatment, the weeds were routinely cultured in a greenhouse.
(§7) A method for investigating absolute number was employed, wherein whole seedlings of survival weeds were cut off with a blade along the soil surface, and the fresh weight of the weeds was weighed with an analytical balance. For dead weeds, the fresh weight thereof was zero.
(§8) The investigation was performed after 21 days of the treatment for only once.
(§9) An optimum ratio of the two active ingredients was determined by the actual control effect, characteristics of herbicides, and balance of a corresponding formula. Wherein, in the formula, X represented the fresh weight inhibition rate of the active ingredient A in a dosage of P, and Y represented the fresh weight inhibition rate of the active ingredient B in a dosage of Q. The statistical results were shown in the table 6.

Lithospermum arvense = experiment: as above
Experimental: as §1, §2, §3, §4, §5, §6, §7, §8, §9

Malachium aquaticum = experiment: as above
Experimental: as §1, §2, §3, §4, §5, §6, §7, §8, §9

Veronica didyma Tenore = experiment: as above; conditions: for pest or weed control at 90 g/ha: B 90 g a.i./ha
Experimental: as §1, §2, §3, §4, §5, §6, §7, §8, §9

Echinochloa crusgalli = experiment: Weeding effect in post-emergence stage; conditions: for activity level (growth control rate) Echinochloa crusgalli: post-emergence, 7.5 g/ha, 3 weeks
In short: (§10)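 Pot-grown weeds were sprayed at the 2-3 leaf stage, 2 weeks after sowing, with compound in acetone plus Tween 80 and 1.5 liter/ha methyl oleate emulsifiable concentrate, diluted in water. Doses were 500, 250, 125, 60, 30, 15, 7.5 g/ha. Growth control was scored after 3 weeks in greenhouse; mean of three replicates.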

Amaranthus retroflexus = experiment: Weeding effect in post-emergence stage; conditions: 7.5 g/ha, 3 weeks
In short: as §10

Eleusine indica = experiment: Weeding effect in post-emergence stage; conditions: for activity level (growth control rate) Eleusine indica: post-emergence, 7.5 g/ha, 3 weeks
In short: as §10

Alopecurus japonicus = experiment: Weeding effect in post-emergence stage; conditions: Dose 15 g/ha; fresh weight control rate level
In short: as §10

Digitaria sanguinalis = experiment: Weeding effect in post-emergence stage; conditions: Dose 15 g/ha; fresh weight control rate level
In short: as §10

Setaria viridis = experiment: Weeding effect in post-emergence stage; conditions: Dose 15 g/ha; fresh weight control rate level
In short: as §10

[1] = Eclipta, foliar, read-out: Control effect (%) of B applied alone (B)
[2] = foliar, Eclipta prostrate, foliage, read-out: Control effect (%) of B applied alone (B)
[3] = Veronica polita, foliar, read-out: Control effect (%) of B applied alone (B)
[4] = Veronica polita, foliar, Veronica didyma Tenore, foliage, read-out: Control effect (%) of B applied alone (B)
[5] = Dose 15 g/ha, fresh weight control rate level

## CCOC(=O)Nc1cccc(OC(=O)Nc2ccccc2)c1 [desmedipham]
Eclipta prostrate; [1]
  pest or weed control at 300 g/ha: 16.2%

## CC(C)N(C)S(=O)(=O)NC(=O)c1cc(-n2c(=O)cc(C(F)(F)F)n(C)c2=O)c(F)cc1Cl [saflufenacil]
Lithospermum arvense; B 0.75 g a.i./ha
  Control effect (%) of B applied alone (B): 39.7%

## C#CCN(C)c1c(C#N)cnn1-c1nn2c(c1Cl)CCCC2 [pyraclonil]
Lithospermum arvense; B 75 g a.i./ha
  Control effect (%) of B applied alone (B): 37.9%

## CCNc1nc(Cl)nc(NC(C)(C)C)n1 [terbuthylazine]
Eclipta prostrate; [2]
  pest or weed control at 150 g/ha: 31.7%

## COC(=O)c1sccc1S(=O)(=O)NC(=O)Nc1nc(C)nc(OC)n1 [thifensulfuron methyl]
Malachium aquaticum; B 4.5 g a.i./ha
  Control effect (%) of B applied alone (B): 30.8%

## CSc1nnc(C(C)(C)C)c(=O)n1N [metribuzin]
Eclipta prostrate; foliar, Eclipta prostrate, foliage, B 15 g a.i./ha, read-out: Control effect (%) of B applied alone (B)
  pest or weed control at 15 g/ha: 36.3%

## O=C(O)c1nc(Cl)ccc1Cl [clopyralid]
Veronica didyma Tenore; Veronica polita, foliar, Veronica didyma Tenore, foliage, B 45 g a.i./ha, read-out: Control effect (%) of B applied alone (B)
  pest or weed control at 45 g/ha: 28.9%

## O=C(O)COc1ccc(Cl)cc1Cl [2,4-dichlorophenoxy acetic acid]
Veronica didyma Tenore; [3]
  pest or weed control at 150 g/ha: 32.6%

## COCc1cnc(C2=NC(C)(C(C)C)C(=O)N2)c(C(=O)O)c1 (stereo not shown) [imazamox]
Malachium aquaticum; B 15 g a.i./ha
  Control effect (%) of B applied alone (B): 27.2%

## CC(C)Oc1cc(-n2nc(C(C)(C)C)oc2=O)c(Cl)cc1Cl [oxadiazon]
Lithospermum arvense; B 90 g a.i./ha
  Control effect (%) of B applied alone (B): 24.3%

## CC(C)c1ccc(NC(=O)N(C)C)cc1 [isoproturon]
Eclipta prostrate; [2]
  pest or weed control at 225 g/ha: 33.9%

## Cc1cc(Cl)ccc1OCC(=O)O [2-methyl-4-chlorophenoxy acetic acid, 2-methyl-4-chlorophenoxyacetic acid]
Veronica didyma Tenore; [3]
  pest or weed control at 150 g/ha: 39.3%

## CCC(C)n1c(=O)[nH]c(C)c(Br)c1=O (stereo not shown) [bromacil]
Eclipta prostrate; [1]
  pest or weed control at 450 g/ha: 28.4%

## COC(=O)c1csc(C)c1S(=O)(=O)NC(=O)n1nc(OC)n(C)c1=O [thiencarbazone-methyl]
Malachium aquaticum; B 3 g a.i./ha
  Control effect (%) of B applied alone (B): 41.1%

## oxadiargyl
Lithospermum arvense; B 30 g a.i./ha
  Control effect (%) of B applied alone (B): 38.7%

## N#Cc1cc(Br)c(O)c(Br)c1 [bromoxynil]
Eclipta prostrate; foliar, Eclipta prostrate, foliage, B 60 g a.i./ha, read-out: Control effect (%) of B applied alone (B)
  pest or weed control at 60 g/ha: 41.2%

## COC(=O)[C@H](C)O/N=C/c1cc(-n2c(=O)cc(C(F)(F)F)n(C)c2=O)c(F)cc1Cl [194(S)]
Echinochloa crusgalli
  activity level (growth control rate) Echinochloa crusgalli: 1 (Level 1: growth control rate is greater than or equal to 5% and less than 20%)
Amaranthus retroflexus
  activity level (growth control rate) Amaranthus retroflexus: 2 (Level 2: growth control rate is greater than or equal to 20% and less than 40%)
Eleusine indica
  activity level (growth control rate) Eleusine indica: 1 (Level 1: growth control rate is greater than or equal to 5% and less than 20%)

## COC(=O)c1ccccc1S(=O)(=O)NC(=O)N(C)c1nc(C)nc(OC)n1 [tribenuron-methyl]
Malachium aquaticum; B 3 g a.i./ha
  Control effect (%) of B applied alone (B): 27.9%

## Nc1c(Cl)c(F)nc(OCC(=O)O)c1Cl [fluroxypyr]
Veronica didyma Tenore; Veronica polita, foliar, Veronica didyma Tenore, foliage, B 60 g a.i./ha, read-out: Control effect (%) of B applied alone (B)
  pest or weed control at 60 g/ha: 39.3%

## CC(C)N1C(=O)c2ccccc2NS1(=O)=O [bentazone]
Eclipta prostrate; [2]
  pest or weed control at 150 g/ha: 30.2%

## COC(=O)Nc1cccc(OC(=O)Nc2cccc(C)c2)c1 [phenmedipham]
Eclipta prostrate; [1]
  pest or weed control at 300 g/ha: 20.8%

## CCOC(=O)C(Cl)Cc1cc(-n2nc(C)n(C(F)F)c2=O)c(F)cc1Cl (stereo not shown) [carfentrazone-ethyl]
Lithospermum arvense; B 4.5 g a.i./ha
  Control effect (%) of B applied alone (B): 27.2%

## O=C(O)COc1nc(Cl)c(Cl)cc1Cl [triclopyr]
Veronica didyma Tenore; [4]
  pest or weed control at 90 g/ha: 34.2%

## C[C@@H](Oc1nc(F)c(Cl)c(N)c1Cl)C(=O)OCC1CCCO1 (stereo partly shown) [Cpd B2]
Veronica didyma Tenore; [4]
  pest or weed control at 90 g/ha: 42.1%

## CCS(=O)(=O)c1cccnc1S(=O)(=O)NC(=O)Nc1nc(OC)cc(OC)n1 [rimsulfuron]
Malachium aquaticum; B 1.5 g a.i./ha
  Control effect (%) of B applied alone (B): 26.2%

## COC(=O)c1c(Cl)nn(C)c1S(=O)(=O)NC(=O)Nc1nc(OC)cc(OC)n1 [halosulfuron methyl]
Malachium aquaticum; B 9 g a.i./ha
  Control effect (%) of B applied alone (B): 36.4%

## Cc1nn(-c2cc(NS(C)(=O)=O)c(Cl)cc2Cl)c(=O)n1C(F)F [sulfentrazone]
Lithospermum arvense; B 90 g a.i./ha
  Control effect (%) of B applied alone (B): 26.5%

## Cc1ccc(NC(=O)N(C)C)cc1Cl [chlorotoluron]
Eclipta prostrate; [2]
  pest or weed control at 225 g/ha: 24.5%

## CCOc1cc(Oc2ccc(C(F)(F)F)cc2Cl)ccc1[N+](=O)[O-] [oxyfluorfen]
Lithospermum arvense; B 60 g a.i./ha
  Control effect (%) of B applied alone (B): 31.5%

## COC(=O)c1nc(-c2ccc(Cl)c(OC)c2F)cc(N)c1Cl [halauxifen-methyl]
Veronica didyma Tenore; Veronica didyma Tenore, foliage, B 3 g a.i./ha
  Control effect (%) of B applied alone (B): 35.6%

## CCC(=O)Nc1ccc(Cl)c(Cl)c1 [propanil]
Eclipta prostrate; foliar, Eclipta prostrate, foliage, B 300 g a.i./ha, read-out: Control effect (%) of B applied alone (B)
  pest or weed control at 300 g/ha: 21.7%

## C#CCN1C(=O)COc2cc(F)c(N3C(=O)C4=C(CCCC4)C3=O)cc21 [flumioxazin]
Lithospermum arvense; B 7.5 g a.i./ha
  Control effect (%) of B applied alone (B): 29.4%

## CC(C)c1nn(C(=O)NC(C)(C)C)c(=O)n1N [amicarbazone]
Eclipta prostrate; Eclipta prostrate, foliage, B 60 g a.i./ha
  Control effect (%) of B applied alone (B): 43.7%

## COc1c(Cl)ccc(-c2nc(C(=O)OCc3ccccc3)c(Cl)c(N)c2F)c1F [florpyrauxifen benzyl]
Veronica didyma Tenore; Veronica didyma Tenore, foliage, B 15 g a.i./ha
  Control effect (%) of B applied alone (B): 50.3%

## Nc1c(Cl)c(Cl)nc(C(=O)O)c1Cl [picloram]
Veronica didyma Tenore; Veronica polita, foliar, Veronica didyma Tenore, foliage, B 300 g a.i./ha, read-out: Control effect (%) of B applied alone (B)
  pest or weed control at 300 g/ha: 43.6%

## C#CCN1C(=O)C(F)(F)Oc2cc(F)c(-n3c(=O)n(C)c(=S)n(C)c3=O)cc21 [trifludimoxazin]
Lithospermum arvense; B 4.5 g a.i./ha
  Control effect (%) of B applied alone (B): 31.8%

## Nc1cc(Cl)nc(C(=O)O)c1Cl [aminopyralid]
Veronica didyma Tenore; Veronica didyma Tenore, foliage, B 30 g a.i./ha
  Control effect (%) of B applied alone (B): 32.2%

## COC(=O)CO/N=C/c1cc(-n2c(=O)cc(C(F)(F)F)n(C)c2=O)c(F)cc1Cl [Control compound D, reference compound]
Echinochloa crusgalli; [5]
  Weeding effect in post-emergence stage, Echinochloa crusgalli (level): 4 (Level 4: growth control rate is greater than or equal to 60% and less than 85%)
Echinochloa crusgalli
  activity level (growth control rate) Echinochloa crusgalli: 1 (Level 1: growth control rate is greater than or equal to 5% and less than 20%)
Amaranthus retroflexus
  activity level (growth control rate) Amaranthus retroflexus: 2 (Level 2: growth control rate is greater than or equal to 20% and less than 40%)
Alopecurus japonicus
  Weeding effect in post-emergence stage, Alopecurus japonicus (level): 2 (Level 2: growth control rate is greater than or equal to 20% and less than 40%)
Digitaria sanguinalis
  Weeding effect in post-emergence stage, Digitaria sanguinalis (level): 3 (Level 3: growth control rate is greater than or equal to 40% and less than 60%)
Setaria viridis
  Weeding effect in post-emergence stage, Setaria viridis (level): 3 (Level 3: growth control rate is greater than or equal to 40% and less than 60%)
Eleusine indica; [5]
  Weeding effect in post-emergence stage, Eleusine indica (level): 3 (Level 3: growth control rate is greater than or equal to 40% and less than 60%)
Eleusine indica
  activity level (growth control rate) Eleusine indica: 2 (Level 2: growth control rate is greater than or equal to 20% and less than 40%)

## COC(=O)[C@H](C)O/N=C/c1cc(-n2c(=O)n(C)c(=S)n(C)c2=O)c(F)cc1Cl [1(S)]
Echinochloa crusgalli
  activity level (growth control rate) Echinochloa crusgalli: 1 (Level 1: growth control rate is greater than or equal to 5% and less than 20%)
Amaranthus retroflexus
  activity level (growth control rate) Amaranthus retroflexus: 1 (Level 1: growth control rate is greater than or equal to 5% and less than 20%)
Eleusine indica
  activity level (growth control rate) Eleusine indica: 1 (Level 1: growth control rate is greater than or equal to 5% and less than 20%)

## COc1c(Cl)ccc(Cl)c1C(=O)O [dicamba]
Veronica didyma Tenore; Veronica polita, foliar, Veronica didyma Tenore, foliage, B 150 g a.i./ha, read-out: Control effect (%) of B applied alone (B)
  pest or weed control at 150 g/ha: 29.7%

## COc1cc(OC)nc(NC(=O)NS(=O)(=O)c2ncccc2C(=O)N(C)C)n1 [nicosulfuron]
Malachium aquaticum; B 3 g a.i./ha
  Control effect (%) of B applied alone (B): 31.4%
